The record followed here is EP4063856A1, “METHODS AND COMPOSITIONS FOR IN VITRO SCREENING OF PROTEASE INHIBITORS” (Universiteit Antwerpen, priority 2021, dated 2022).

Counter-ions that a name gives are not always drawn.

Assay [1] has as its target T1, TMPRSS2 in prostasomes (Homo sapiens, UniProt O15393).
T1 construct: Prostasomes or extracellular vesicles were isolated from semen samples using ultracentrifugation and size-exclusion chromatography; from tissue; host or cells: prostasomes (extracellular vesicles) from pooled semen samples
Nature of the assay: Inhibitor screening assay with intact prostasomes (trypsin-like activity, Boc-QAR-AMC substrate, fluorescence). As to conditions: 15 minutes of incubation at 37°C, 30 µM Boc-QAR-AMC, read-out: Inhibitory effect (%): percentage of inhibited trypsin-like activity. The class given is biochemical.
Description: Trypsin-like activity in the intact prostasomes was determined using 100 µM Boc-QAR-AMC (Bachem) in 50 mM Tris 120 mM NaCl pH 8,0. Fluorescence was measured kinetically at 37°C for 20 minutes on a Tecan F200 multi-plate reader at an excitation and emission wavelength of 380 nm and 465 nm, respectively.
On the one hand, intact prostasomes and on the other hand, medium containing recombinant TMPRSS2 (rTMPRSS2) were used. The prostasome suspension and rTMPRSS2 were diluted so that less than 10% substrate conversion was observed after 30 minutes of measurement and trypsin-like activities of both preparations were similar (approximately 0.025 U/L). The inhibitors were added to the samples in concentrations of 10 µM, 1 µM and 100 nM, followed by 15 minutes of incubation at 37°C. The substrate, Boc-QAR-AMC (Bachem), was added in a final concentration of 30 µM. […] Fluorescence was measured kinetically at 37°C for 20 minutes on a Tecan F200 multi-plate reader at an excitation and emission wavelength of 380 nm and 465 nm, respectively. The inhibitory effect was calculated by dividing the trypsin-like activity without inhibitor by the activity with inhibitor and was expressed as percentage inhibition.

In assay [2] the target is T2, recombinant TMPRSS2 (rTMPRSS2) (Homo sapiens, UniProt O15393).
T2 construct: The expression vector, encoding the serine protease domain of TMPRSS2, a His-tag and a secretion signal; His-tag; secretion signal; made in house; host or cells: HEK293T cells, transient transfection; unpurified cell medium used
T2 sequence (O15393 256-492 limits assumed): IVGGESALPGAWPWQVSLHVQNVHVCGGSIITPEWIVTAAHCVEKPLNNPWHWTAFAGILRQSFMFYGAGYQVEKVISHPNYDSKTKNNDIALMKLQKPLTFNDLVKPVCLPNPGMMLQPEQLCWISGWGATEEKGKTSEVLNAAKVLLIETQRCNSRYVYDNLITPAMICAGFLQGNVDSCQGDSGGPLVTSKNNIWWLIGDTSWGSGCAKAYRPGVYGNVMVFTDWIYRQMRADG
The assay can be described thus: Inhibitor screening assay with medium containing recombinant TMPRSS2 (trypsin-like activity, Boc-QAR-AMC substrate, fluorescence). The format is biochemical. As to conditions: 15 minutes of incubation at 37°C, 30 µM Boc-QAR-AMC, read-out: Inhibitory effect (%): percentage of inhibited trypsin-like activity.
Description: Cell medium containing the TMPRSS2 serine protease domain was collected 4 days post-transfection and trypsin-like activity was determined as described above.
On the one hand, intact prostasomes and on the other hand, medium containing recombinant TMPRSS2 (rTMPRSS2) were used. The prostasome suspension and rTMPRSS2 were diluted so that less than 10% substrate conversion was observed after 30 minutes of measurement and trypsin-like activities of both preparations were similar (approximately 0.025 U/L). The inhibitors were added to the samples in concentrations of 10 µM, 1 µM and 100 nM, followed by 15 minutes of incubation at 37°C. The substrate, Boc-QAR-AMC (Bachem), was added in a final concentration of 30 µM. This concentration was determined to be the Michaelis-Menten constant for Boc-QAR-AMC and recombinant TMPRSS2. Fluorescence was measured kinetically at 37°C for 20 minutes on a Tecan F200 multi-plate reader at an excitation and emission wavelength of 380 nm and 465 nm, respectively. The inhibitory effect was calculated by dividing the trypsin-like activity without inhibitor by the activity with inhibitor and was expressed as percentage inhibition.

T1 sequence (O15393 256-492 limits assumed): as above
T1 sequence (O15393 1-255 limits assumed): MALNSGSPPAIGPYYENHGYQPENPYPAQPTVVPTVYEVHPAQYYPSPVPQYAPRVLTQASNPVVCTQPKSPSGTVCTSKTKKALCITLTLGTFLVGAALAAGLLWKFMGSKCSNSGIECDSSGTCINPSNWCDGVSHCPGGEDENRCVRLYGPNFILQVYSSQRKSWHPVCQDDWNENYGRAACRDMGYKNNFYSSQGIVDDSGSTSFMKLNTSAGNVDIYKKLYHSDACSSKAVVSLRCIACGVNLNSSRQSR

`CN(C)C(=O)COC(=O)Cc1ccc(OC(=O)c2ccc(NC(=N)N)cc2)cc1` [Camostat, camostat mesylate]: the inhibition at 0.1 µM in assay [1] (100 nM inhibitor) stood at 99%; in assay [2] (100 nM inhibitor), 73%. Besides, the inhibition at 1 µM was found to be 100% in assay [1] (1 µM inhibitor) and 88% in assay [2] (1 µM inhibitor). Further, the inhibition at 10 µM in assay [1] (10 µM inhibitor) and in assay [2] (10 µM inhibitor) was 100% in each case.
